Experiment: xn = mol fraction of the nth substance listed
Settings: 100 kPa, Liquid; for viscosity: Cone and plate viscometry; for mass density: Vibrating tube method

CCC(C)(C)O [2-methylbutan-2-ol] + CC(C)CO
Settings | mass density [kg/m3] | viscosity [mPa·s]
293.15 K, x1 = 0.101 | 803.58 | 4.697
293.15 K, x1 = 0.2 | 805.09 | 5.166
293.15 K, x1 = 0.301 | 806.61 | 5.487
293.15 K, x1 = 0.4 | 807.99 | 5.819
293.15 K, x1 = 0.5 | 809.31 | 6.094
293.15 K, x1 = 0.599 | 810.29 | 6.075
293.15 K, x1 = 0.7 | 810.83 | 5.951
293.15 K, x1 = 0.8 | 810.82 | 5.518
293.15 K, x1 = 0.9 | 810.12 | 5.081
293.15 K, x1 = 1 | 808.77 | 4.596
303.15 K, x1 = 0.101 | 795.96 | 3.244
303.15 K, x1 = 0.2 | 797.22 | 3.387
303.15 K, x1 = 0.301 | 798.63 | 3.616
303.15 K, x1 = 0.4 | 799.87 | 3.726
303.15 K, x1 = 0.5 | 800.87 | 3.775
303.15 K, x1 = 0.599 | 801.55 | 3.715
303.15 K, x1 = 0.7 | 801.84 | 3.597
303.15 K, x1 = 0.8 | 801.61 | 3.386
303.15 K, x1 = 0.9 | 800.89 | 3.187
303.15 K, x1 = 1 | 799.74 | 2.983
313.15 K, x1 = 0.101 | 788 | 2.392
313.15 K, x1 = 0.2 | 789.04 | 2.445
313.15 K, x1 = 0.301 | 790.24 | 2.526
313.15 K, x1 = 0.4 | 791.21 | 2.552
313.15 K, x1 = 0.5 | 791.89 | 2.539
313.15 K, x1 = 0.599 | 792.32 | 2.46
313.15 K, x1 = 0.7 | 792.36 | 2.365
313.15 K, x1 = 0.8 | 792.06 | 2.287
313.15 K, x1 = 0.9 | 791.35 | 2.204
313.15 K, x1 = 1 | 790.35 | 2.078
323.15 K, x1 = 0.101 | 779.8 | 1.749
323.15 K, x1 = 0.2 | 780.62 | 1.776
323.15 K, x1 = 0.301 | 781.62 | 1.8
323.15 K, x1 = 0.4 | 782.29 | 1.792
323.15 K, x1 = 0.5 | 782.77 | 1.756
323.15 K, x1 = 0.599 | 782.89 | 1.721
323.15 K, x1 = 0.7 | 782.77 | 1.664
323.15 K, x1 = 0.8 | 782.3 | 1.606
323.15 K, x1 = 0.9 | 781.58 | 1.549
323.15 K, x1 = 1 | 780.66 | 1.494
333.15 K, x1 = 0.101 | 771.08 | 1.31
333.15 K, x1 = 0.2 | 771.75 | 1.315
333.15 K, x1 = 0.301 | 772.36 | 1.329
333.15 K, x1 = 0.4 | 772.81 | 1.316
333.15 K, x1 = 0.5 | 772.96 | 1.277
333.15 K, x1 = 0.599 | 772.93 | 1.243
333.15 K, x1 = 0.7 | 772.58 | 1.206
333.15 K, x1 = 0.8 | 772.09 | 1.164
333.15 K, x1 = 0.9 | 771.38 | 1.128
333.15 K, x1 = 1 | 770.4 | 1.093
343.15 K, x1 = 0.101 | 762.05 | –
343.15 K, x1 = 0.2 | 762.45 | –
343.15 K, x1 = 0.301 | 762.79 | –
343.15 K, x1 = 0.4 | 762.98 | –
343.15 K, x1 = 0.5 | 762.91 | –
343.15 K, x1 = 0.599 | 762.66 | –
343.15 K, x1 = 0.7 | 762.18 | –
343.15 K, x1 = 0.8 | 761.63 | –
343.15 K, x1 = 0.9 | 760.84 | –
343.15 K, x1 = 1 | 759.8 | –
353.15 K, x1 = 1 | 749.13 | –
363.15 K, x1 = 1 | 738.77 | –
